Tests used:
Type in all cases: in vivo
[1] = test system: TNF-alpha; test: Real-time RT-PCR of cytokine expression: TNF-alpha; conditions: 6 months, versus untreated mice
Method: Real-time RT-PCR assay of growth factors and cytokine expression profiles Total RNAs were extracted from a sample of whole stomach from each animal with Trizol (Invitrogen, Calif.) and five micrograms of total RNA were used for first strand cDNA synthesis using Superscript II cDNA amplification System (Invitrogen, Calif.) following manufacturer's instructions. Real-time PCR was performed as above using RT-PCR primers for each gene as listed below. All primers were designed using Lasergene ver5.0 software (DNASTAR inc., Madison, Wis.). Results were calculated by minus delta delta threshold cycle (-ΔΔCt) method (Livak, K. J. et al., 2001). Briefly, the threshold cycle Ct1 of each sample reaction was deducted from the threshold cycle Ct2 of GAPDH reaction for normalization, and then deducted from the threshold cycle Ct3 of calibration control (45 cycles in this experiment), i.e., the final result was represented by the formula; Ct3-(Ct1-Ct2). […]

[2] = test system: H. felis-infected INS-GAS mice; test: Gastric mucosa histological evaluation and scoring; conditions: for Corpus histological score: Atrophy / Corpus histological score: Dysplasia / Corpus histological score: Hyperplasia / Corpus histological score: Inflammation: scale 0 to 4, mean ± SD
From the text: (§1) The insulin-gastrin (INS-GAS) transgenic mice (FVB/N background) have been described previously (Wang, T. C. et al., 2000; Wang T. C. et al., 1993) and were free of specific pathogens. Animals were housed in microisolator, solid-bottomed polycarbonate cages, fed a commercially prepared pelleted diet, and given water ad libitum. One hundred twenty four (124) male INS-GAS mice at 2 or 3 months of age were inoculated with Helicobacter felis (ATCC 49179) as previously described (Wang, T. C. et al., 2000). Infection status was confirmed at 14 weeks and 26 weeks post inoculation by enzyme-linked immunosorbent assay (ELISA) to measure immunoglobulin IgG antibody to H. felis, and by quantitative real-time PCR assays of gastric corpus tissue at necropsy as described below. All experiments were approved by the Institutional Animal Care and Use Committee of University of Massachusetts Medical School.
Mice in group III were treated orally with the histamine H2 receptor antagonist loxtidine (in drinking water) at a dose of 0.5 g/L, while group IV mice received both drugs. For the 3 months drug study of inhibitory effects on maximal acid secretion, gastric atrophy, hyperplasia and dysplasia, 8 mice were prepared for each group. For the 6 months drug study of inhibitory effects on gastric carcinogenesis, 17 mice were prepared for each group.
The proton pump inhibitor omeprazole was purchased from Sigma (St. Louis Mo.) and dissolved in dimethylsulfoxide (DMSO)/PEG300, a 1:1 mixture at the concentration of 40 mg/ml, and injected intraperitoneally daily at the dose of […] (=350 micromole/kg) for 3 months. Twenty four (24) mice were divided into four groups. Mice in group A were controls treated with vehicle only, whereas group B mice were treated with omeprazole alone. Group C and D mice were treated with combination of omeprazole and YF476 or loxtidine, respectively.
At necropsy, linear strips extending from the squamocolumnar junction through the proximal duodenum were fixed in 10% neutral-buffered formalin, paraffin-embedded, cut at 5 microns, and stained with hematoxylin and eosin. Indices of injury in the gastric cardia/corpus and antrum were scored on an ordinal scale from 0 to 4 in increments of 0.5 by a single veterinary pathologist (A.B.R.) blinded to treatment groups. Paraffin-embedded sections were also stained with the Warthin-Starry silver staining method for detection of H.felis as previously described (Fox, J. G. et al., 2003).

[3] = test system: Helicobacter felis; test: H. felis infection status (Warthin-Starry staining, IgG ELISA, real-time PCR); conditions: quantitative real-time PCR; n=6
From the text: as §1, with “All experiments were approved by the Institutional Animal Care and Use Committee of University of Massachusetts Medical School.” left out
At necropsy, linear strips extending from the squamocolumnar junction through the proximal duodenum were fixed in 10% neutral-buffered formalin, paraffin-embedded, cut at 5 microns, and stained with hematoxylin and eosin. Indices of injury in the gastric cardia/corpus and antrum were scored on an ordinal scale from 0 to 4 in increments of 0.5 by a single veterinary pathologist (A.B.R.) blinded to treatment groups. […]
Plasma gastrin levels (COOH-terminally amidated gastrin) were determined by radioimmunoassay using rabbit antiserum L2 that reacts similarly with G17 and […]. […]

1-methyl-5-((3-(3-(1-piperidinylmethyl)phenoxy)propyl)amino)-1H-1,2,4-triazole-3-ethanol [Loxtidine]
TNF-alpha expression level ([1]; listed as Loxtidine alone): significantly lower level | TNF-alpha expression level ([1]; listed as loxtidine alone): significantly down-regulated | Histological finding: gastric atrophy, hyperplasia, dysplasia ([2]; 3 months treatment, hematoxylin and eosin): partially blocked | Histological finding: gastric atrophy, hyperplasia, dysplasia ([2]; 3 months treatment, hematoxylin and eosin, listed as loxtidine): partial inhibition of gastric atrophy and foveolar hyperplasia | Histological finding: gastric atrophy, hyperplasia, dysplasia ([2]; 3 months treatment, hematoxylin and eosin, listed as loxtidine alone): slight inhibition of Helicobacter-mediated gastric atrophy | Corpus histological score: Atrophy ([2]; 3 months treatment, n = 4): 1.83 ± 0.29 | Corpus histological score: Dysplasia ([2]; 3 months treatment, n = 4): 1.00 ± 0.50 | Corpus histological score: Hyperplasia ([2]; 3 months treatment, n = 4): 1.33 ± 0.58 | Corpus histological score: Inflammation ([2]; 3 months treatment, n = 4): 1.83 ± 0.29 | Histological finding: gastric neoplasia / carcinogenesis ([2]; 6 months treatment, hematoxylin and eosin): partial inhibition of progression to neoplasia | Corpus histological score: Atrophy ([2]; 6 months treatment, n = 5): 2.67 ± 0.61 | Corpus histological score: Dysplasia ([2]; 6 months treatment, n = 5): 2.17 ± 1.29a | Corpus histological score: Hyperplasia ([2]; 6 months treatment, n = 5): 2.42 ± 1.07a | Corpus histological score: Inflammation ([2]; 6 months treatment, n = 5): 2.33 ± 1.17 | H. felis DNA copy numbers per gastric corpus DNA (copy/μg) compared with non drug treated mice [3]: no significant difference

— US20050042283A1, “Histamine and CCK2/gastrin receptor blockade in the treatment of acid-peptic disease and cancer” (UNIVERSITY OF MASSACHUSETTS, priority 2003, published 2005)
